PubChem BioAssay (NCI)
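Test compounds were applied to cells in 96-well plates for 48 hours at 5 doses. Definition used: TGI = concentration required for complete inhibition of growth.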

Assays:
Assay in all cases: inhibition of tumour cell growth, NCI panel, 48 h
NCI-H23 lung = tested on: NCI-H23 lung
K-562 leukemia = tested on: K-562 leukemia
COLO 205 colon = tested on: COLO 205 colon
MCF7 breast = tested on: MCF7 breast
MDA-MB-435 = tested on: MDA-MB-435
NCI/ADR-RES ovarian = tested on: NCI/ADR-RES ovarian
T-47D breast = tested on: T-47D breast
MDA-MB-231 breast = tested on: MDA-MB-231 breast
MDA-N = tested on: MDA-N
BT-549 breast = tested on: BT-549 breast
PC-3 prostate = tested on: PC-3 prostate
HOP-18 NSCLC = tested on: HOP-18 NSCLC
NCI-H226 lung = tested on: NCI-H226 lung
KM20L2 colon = tested on: KM20L2 colon
XF 498 CNS = tested on: XF 498 CNS
LXFL 529 NSCLC = tested on: LXFL 529 NSCLC
HOP-92 NSCLC = tested on: HOP-92 NSCLC
DMS 273 small cell lung = tested on: DMS 273 small cell lung
SK-MEL-2 melanoma = tested on: SK-MEL-2 melanoma
DLD-1 colon = tested on: DLD-1 colon

SMILES	TGI (NCI-H23 lung) [µM]	TGI (K-562 leukemia) [µM]	TGI (COLO 205 colon) [µM]	TGI (MCF7 breast) [µM]	TGI (MDA-MB-435) [µM]	TGI (NCI/ADR-RES ovarian) [µM]	TGI (T-47D breast) [µM]	TGI (MDA-MB-231 breast) [µM]	TGI (MDA-N) [µM]	TGI (BT-549 breast) [µM]	TGI (PC-3 prostate) [µM]	TGI (HOP-18 NSCLC) [µM]	TGI (NCI-H226 lung) [µM]	TGI (KM20L2 colon) [µM]	TGI (XF 498 CNS) [µM]	TGI (LXFL 529 NSCLC) [µM]	TGI (HOP-92 NSCLC) [µM]	TGI (DMS 273 small cell lung) [µM]	TGI (SK-MEL-2 melanoma) [µM]	TGI (DLD-1 colon) [µM]
COc1ccc(-c2c(C(C)=O)c(C)n(C3OC(CO)C(O)C(O)C3O)c(=S)c2C#N)cc1 (stereo not given)	> 100	> 100	> 100	> 100	> 100	> 100	> 100	> 100	> 100	> 100	> 100									
NC(CO)c1ccccc1 (stereo not given)												96.1	> 100	> 100	> 100	> 100	> 100	> 100	> 100	> 100
